Key:
[1] = 101.33 kPa, Liquid, Vibrating tube method
[2] = mn = molality of the nth substance listed, in mol/kg; conditions: 101 kPa, Liquid, Vibrating tube method

CN1CCCN(C)C1=O [1,3-dimethyl-3,4,5,6-tetrahydro-2(1H)-pyrimidinone]
[1]
Conditions	mass density [kg/m3]
278.15 K	1076.18
288.15 K	1067.81
298.15 K	1059.46
308.15 K	1051.12
313.15 K	1046.95
318.15 K	1042.78

CN1CCCN(C)C1=O [1,3-dimethyl-3,4,5,6-tetrahydro-2(1H)-pyrimidinone] + O
mass density [kg/m3], [2]
Conditions	278.15 K	288.15 K	298.15 K	308.15 K	313.15 K	318.15 K
m1 = 0.03864	1000.41	999.51	997.43	994.38	992.55	990.54
m1 = 0.07586	1000.85	999.91	997.79	994.72	992.88	990.86
m1 = 0.1037	1001.18	1000.21	998.07	994.98	993.12	991.09
m1 = 0.1575	1001.83	1000.8	998.61	995.48	993.6	991.55
m1 = 0.2215	1002.6	1001.51	999.26	996.08	994.18	992.11
m1 = 0.2812	1003.34	1002.17	999.87	996.64	994.72	992.63
m1 = 0.407	1004.9	1003.6	1001.17	997.84	995.87	993.74
m1 = 0.5303	1006.46	1005.01	1002.46	999.04	997.02	994.85
m1 = 0.6771	1008.32	1006.7	1004.01	1000.47	998.39	996.17
m1 = 0.8298	1010.25	1008.46	1005.62	1001.96	999.83	997.56
m1 = 0.9878	1012.23	1010.27	1007.28	1003.5	1001.31	998.99

Source: the NIST ThermoML archive (doi:10.1016/j.tca.2010.11.002)
